Data reported in patent publication US10016382B2, “Method for decreasing skeletal muscle damage and/or oxidative stress in mammals” (LONZA INC., priority 2014, dated 2018).
Where “and” joins values, the source holds several entries; their conditions need not be identical. Identical values can stand only once.

Key:
Assay type in all cases: in vivo, dog
[1] = system: canine myoglobin; experiment: Serum canine myoglobin, Example 2 part one; settings: for Serum myoglobin: Ex.2 part one, 250 mg/d; for Myoglobin: serum
Protocol: (§1) Twenty-four hours after test dogs ran the last 15 mile endurance run, serum samples were taken to evaluate biomarkers for muscle damage and antioxidant status. Blood samples were taken 1) just prior to the beginning of the study; 2) 1 day prior to running the final 15 mile run on the 14th week; 3) 1 hour immediately following the 15 mile run; and 4) 24 hours following the final 15 mile run. After a blood sample was drawn, it was allowed to clot for 30 minutes at 25° C. before being centrifuged for 15 minutes at 2000 g at 4° C. Serum was aliquoted into 0.65 mL microcentrifuge tubes and stored at −80° C. until being assayed at the end of the study for creatine kinase, canine myoglobin, thiobarbituric acid reactive substances (TBARS), and total antioxidant capacity (TAC) using the commercially available kits described in Example 1.

[2] = system: Thiobarbituric acid reactive substances (TBARS); experiment: Serum TBARS, Example 2 part one; settings: for TBARS level, serum: Ex.2 part one, 250 mg/d; for TBARS: serum
Protocol: as §1

[3] = Daily food consumption, Example 1; settings: Ex.1, 250 mg/d; for Daily Food Intake: mean ± SEM
Protocol: Experimental Design: Forty Labrador Retrievers (labs) ranging in age from 1 to 3.5 years were incorporated into a two dietary treatment study. The two dietary treatments were based on feeding the test dogs the same low L-carnitine diet but adding 250 mg per day of L-carnitine to the L-carnitine group. Each of the L-carnitine dogs received the daily 250 mg of L-carnitine mixed with an additional 3.75 g sugar. The control dogs received 4 g of sugar each day. Twenty labs of equal gender, age, excitement level, frame size, body weight and genetic background were utilized for each of the two treatments. The labs utilized for the nutrition study were from a minimum of 6 different bitches. The lean body mass of the 40 test dogs was determined by scanning with the DEXA and the final key component utilized to assure equal groups. Prior to the start of the study, the labs were acclimated to the experimental diets for a minimum of 10 days. The labs were weighed at the beginning of the 90 day study and weighed every two weeks throughout the study. Feed consumption was determined daily by weighing feed provided and feed refusals. The quantity of food provided each dog on a daily basis was adjusted based on maintaining a minimum initial starting body weight throughout the study. The dog food was provided by Lonza Inc. and was equal to the minimum guaranteed analysis of Gold N Pro (MFA of Missouri) that the performance dogs had been consuming prior to the start of the study (Table 1).

[4] = system: Labrador Retrievers; experiment: Time of final 15 mile run, Example 2 part one (14 week crossover study); settings: Ex.2 part one, 250 mg/d, 15 mile run at end of 14 week study, mean ± SEM
Protocol: Part One: For part one of the study, fifty-six Labrador Retrievers were divided into two equal groups of 28 (14 males, 14 females) based on gender, BW, genetics, age, excitement level, frame size, and lean body mass. The dogs were out of a minimum of 10 different bitches and at least as many sires. Prior to the start of the study, the dogs were tested for lean mass, muscle damage, and antioxidant status as described in Example 1. In addition to the low carnitine basal diet, twenty-eight of the Labs received 250 mg/day of L-carnitine (batch D23013) and 3.75 g/d of sugar, while twenty-eight of the Labs received 4 g/d of sugar. Both the L-carnitine and control performance dogs were put through a weekly running program consisting of two evenly distributed endurance runs. Groups ranging between 6 and 10 dogs were run together, including both treatments in each group. The endurance runs increased incrementally by 0.5 miles per week (5 miles/session increasing to 10 miles per session over an 11 week period). The dogs were allowed a 1 day rest between runs and a 3 day rest before a scheduled exercise distance increase. The dogs were put through maintenance runs of 5 miles twice in the 12th week and then 2 miles twice in the 13th week. All dogs had at least 4 days of rest prior to the final 15 miles run in the 14th week. Each performance dog wore the Actical activity monitor and GPS tracking collar during the last 15 mile endurance run. The final run was conducted in a manner analogous to that of Example 1. All activity was accurately and precisely calculated using the GPS tracking monitors. Immediately following the 15 mile endurance run, each dog was placed in a kennel and evaluated for recovery time in body temperature (every 15 minutes for 2 hours) and heart rate (every 2 minutes for up to 20 minutes until basal beats per minute (BPM) was reached). Body temperature and heart rate were measured as described in Example 1.

[5] = Whole Groups, Post-Run 1 Hr, Post-Run 1 Hr
[6] = Whole Groups, Post-Run 24 Hr, Post-Run 24 Hr

C[N+](C)(C)C[C@H](O)CC(=O)[O-] [L-carnitine]
Serum myoglobin ([1]; post-run 1 hour): 23.83 ng/mL | Serum myoglobin ([1]; post-run 24 hour): 9.25 ng/mL | Myoglobin ([1]; FEMALES, Baseline): 17.33 ± 4.7 ng/mL | Myoglobin ([1]; FEMALES, Post-Run 1 Hr): 25.19 ± 4.25 ng/mL | Myoglobin ([1]; FEMALES, Post-Run 24 Hr): 8.08 ± 2.83 ng/mL | Myoglobin ([1]; FEMALES, Pre-Run): 4.88 ± 1.24 ng/mL | Myoglobin ([1]; MALES, Baseline): 22.22 ± 6.92 ng/mL | Myoglobin ([1]; MALES, Post-Run 1 Hr): 22.46 ± 4.41 ng/mL | Myoglobin ([1]; MALES, Post-Run 24 Hr): 4.41 ± 0.64 ng/mL | Myoglobin ([1]; MALES, Pre-Run): 8.69 ± 3.25 ng/mL | Myoglobin ([1]; Whole Groups, Baseline): 19.78 ± 4.13 ng/mL | Myoglobin [1, 5]: 23.83 ± 3.02 ng/mL | Myoglobin [1, 6]: 6.25 ± 1.47 ng/mL | Myoglobin ([1]; Whole Groups, Pre-Run): 6.78 ± 1.74 ng/mL | TBARS level, serum ([2]; post-run 1 hr, MDA): 16.45 µM | TBARS level, serum ([2]; prior to the 15 mile endurance run): 15.36 μM malondialdehyde (MDA) | TBARS ([2]; FEMALES, Baseline): 13.03 ± 1.29 μM MDA | TBARS ([2]; FEMALES, Post-Run 1 Hr): 17.44 ± 2.26 μM MDA | TBARS ([2]; FEMALES, Post-Run 24 Hr): 26.01 ± 3.09 μM MDA | TBARS ([2]; FEMALES, Pre-Run): 16.68 ± 2.16 μM MDA | TBARS ([2]; MALES, Baseline): 14.51 ± 1.38 μM MDA | TBARS ([2]; MALES, Post-Run 1 Hr): 15.46 ± 1.79 μM MDA | TBARS ([2]; MALES, Post-Run 24 Hr): 19.62 ± 2.38 μM MDA | TBARS ([2]; MALES, Pre-Run): 14.03 ± 2.24 μM MDA | TBARS ([2]; Whole Groups, Baseline): 13.77 ± 0.94 μM MDA | TBARS [2, 5]: 16.45 ± 1.43 μM MDA | TBARS [2, 6]: 22.81 ± 2.01 μM MDA | TBARS ([2]; Whole Groups, Pre-Run): 15.36 ± 1.55 μM MDA | Daily Food Intake ([3]; Week 2): 723 ± 26 n = 20 g | Daily Food Intake ([3]; Week 4): 636 ± 30 n = 20 g | Daily Food Intake ([3]; Week 5): 639 ± 27 n = 20 g | Daily Food Intake ([3]; Week 6): 651 ± 26 n = 20 g | Daily Food Intake ([3]; Week 7): 626 ± 24 n = 20 g | Daily Food Intake ([3]; Week 8): 626 ± 24 n = 20 g | Daily Food Intake ([3]; Week 9): 622 ± 26 n = 20 g | Daily Food Intake ([3]; Week 10): 570 ± 25 n = 20 g | Daily Food Intake ([3]; Week 11): 577 ± 24 n = 20 g | Daily Food Intake ([3]; Week 13): 555 ± 20 n = 20 g | Food consumption vs control ([3]; over the entire 13 wk period): not significantly different | Daily Food Intake ([3]; overall Average of 13 wk study): 626 g and 626 ± 24 n = 20 g | Final Run Time ([4]; Female): 73.7 ± 0.86 min | Final Run Time ([4]; Male): 76.11 ± 1.64 min | Final Run Time ([4]; both sexes): 74.90 min and 74.9 ± 0.94 min
